Measured values published in patent publication US20260159512A1, “BCAT2 INHIBITORS” (AGIOS PHARMACEUTICALS, INC., priority 2021, published 2026).

Columns and labels:
BCAT2 [1] = target: T1, BCAT2 (Homo sapiens, UniProt O15382); assay: BCAT2 in vitro enzyme inhibition assay (resazurin/diaphorase-coupled fluorescence); format: biochemical; conditions: average where tested multiple times
T1 sequence (O15382 28-392): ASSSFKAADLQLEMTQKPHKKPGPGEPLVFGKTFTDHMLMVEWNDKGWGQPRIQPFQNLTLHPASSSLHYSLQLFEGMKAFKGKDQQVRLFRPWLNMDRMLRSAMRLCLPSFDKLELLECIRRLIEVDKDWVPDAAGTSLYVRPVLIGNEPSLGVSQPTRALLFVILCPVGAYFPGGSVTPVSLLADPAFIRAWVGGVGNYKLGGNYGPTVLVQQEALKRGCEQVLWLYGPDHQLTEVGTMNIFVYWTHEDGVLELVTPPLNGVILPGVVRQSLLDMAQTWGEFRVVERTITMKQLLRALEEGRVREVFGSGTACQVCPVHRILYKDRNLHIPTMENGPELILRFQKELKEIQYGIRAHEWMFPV
Outline: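 Coupled fluorescence readout: glutamate formed from L-leucine/α-ketoglutarate transamination drives GDH/NAD/diaphorase reduction of resazurin (Ex 540/Em 590). Human BCAT2 was first exposed 1 h at room temperature to compound, top final 100 μM in 3-fold, 10-point series; substrate reaction ran 1 h before SDS quench, in technical duplicate with DMSO max and enzyme-free min controls.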

BCAT2 [2] = target: T1, BCAT2; assay: BCAT2 in vitro cell inhibition using engineered A549 cells (KMV cell assay, 13C6-KMV by LC-MS/MS); format: cell-based; set-up: The result was an engineered A549 cell line that expressed endogenous BCAT2; endogenous in cells; host or cells: A549 cells with MUT and BCAT1 knocked out by CRISPR/CAS9; key to BCAT2 Cell Inhibition: A: less than or equal to 0.100 μM; B: greater than 0.100 and less than or equal to 0.500 μM; C: greater than 0.500 and less than or equal to 1.000 μM; d: greater than 1.000 μM; E: no fit; conditions: average where tested multiple times

Row | IC50 (BCAT2 [1]) | BCAT2 Cell Inhibition (BCAT2 [2]) | IC50 (BCAT2 [2]) | Compound
1 | 100 to 500 nM |  | 100 to 500 nM | O=C(N[C@@H]1CCC[C@H](n2c(-c3ccccc3F)nc3cnc(-n4nccn4)cc32)[C@H]1O)c1ncc(Cl)s1 [Example 114, 5-chloro-N-((1R,2S,3S)-3-(2-(2-fluorophenyl)-6-(2H-1,2,3-triazol-2-yl)-1H-imidazo[4,5-c]pyridin-1-yl)-2-hydroxycyclohexyl)thiazole-2-carboxamide]
2 | > 1000 nM | E |  | O=C(NN1CCCC(n2c(-c3ccccn3)nc3cnc(-n4nccn4)cc32)C1)c1ncc(C(F)F)s1 (stereo not drawn) [Example 137, 5-(difluoromethyl)-N-(3-(2-(pyridin-2-yl)-6-(2H-1,2,3-triazol-2-yl)-1H-imidazo[4,5-c]pyridin-1-yl)piperidin-1-yl)thiazole-2-carboxamide]
3 | > 1000 nM | E |  | O=C(N[C@H]1CCC[C@@H](n2c(Oc3cc[nH]n3)nc3cnc(-c4nc[nH]n4)cc32)C1)c1ncc(Cl)s1 [Example 191, N-((1S,3R)-3-(2-((1H-pyrazol-3-yl)oxy)-6-(1H-1,2,4-triazol-3-yl)-1H-imidazo[4,5-c]pyridin-1-yl)cyclohexyl)-5-chlorothiazole-2-carboxamide]
4 | > 1000 nM |  | > 1000 nM | COC[C@H]1CCCN1c1cc2c(cn1)nc(-c1ccccc1F)n2[C@@H]1CCC[C@H](NC(=O)c2ncc(Cl)s2)C1 [Example 198, 5-chloro-N-((1S,3R)-3-(2-(2-fluorophenyl)-6-((R)-2-(methoxymethyl)pyrrolidin-1-yl)-1H-imidazo[4,5-c]pyridin-1-yl)cyclohexyl)thiazole-2-carboxamide]
5 | > 1000 nM | E |  | CC(C)Cc1nc2cnc(-c3cccc(F)n3)cc2n1[C@H]1CCC[C@@H](NC(=O)c2ncc(Cl)s2)[C@@H]1O [Example 208, 5-chloro-N-((1R,2S,3S)-3-(6-(6-fluoropyridin-2-yl)-2-isobutyl-1H-imidazo[4,5-c]pyridin-1-yl)-2-hydroxycyclohexyl)thiazole-2-carboxamide]
6 | 500 to 1000 nM | E |  | CC(C)Cc1nc2cnc(-c3ccn(C(F)F)n3)cc2n1[C@H]1CCC[C@@H](NC(=O)c2ncc(Cl)s2)[C@@H]1O [Example 229, 5-chloro-N-((1R,2S,3S)-3-(6-(1-(difluoromethyl)-1H-pyrazol-3-yl)-2-isobutyl-1H-imidazo[4,5-c]pyridin-1-yl)-2-hydroxycyclohexyl)thiazole-2-carboxamide]
7 | 500 to 1000 nM | E |  | CC(C)Cc1nc2cnc(-c3ccccn3)cc2n1[C@H]1CCC[C@@H](NC(=O)c2ncc(Cl)s2)[C@@H]1O [Example 236, 5-chloro-N-((1R,2S,3S)-2-hydroxy-3-(2-isobutyl-6-(pyridin-2-yl)-1H-imidazo[4,5-c]pyridin-1-yl)cyclohexyl)thiazole-2-carboxamide]
8 | > 1000 nM | E |  | Cc1cnn(-c2cc3c(cn2)nc(CC(C)C)n3[C@H]2CCC[C@@H](NC(=O)c3ncc(Cl)s3)[C@@H]2O)n1 [Example 244, 5-chloro-N-((1R,2S,3S)-2-hydroxy-3-(2-isobutyl-6-(4-methyl-2H-1,2,3-triazol-2-yl)-1H-imidazo[4,5-c]pyridin-1-yl)cyclohexyl)thiazole-2-carboxamide]
9 | 100 to 500 nM |  | 500 to 1000 nM | O=C(N[C@@H]1CCC[C@H](n2c(-c3ccccc3F)nc3cnc(-c4ncco4)cc32)[C@H]1O)c1ncc(Cl)s1 [Example 249, 5-chloro-N-((1R,2S,3S)-3-(2-(2-fluorophenyl)-6-(oxazol-2-yl)-1H-imidazo[4,5-c]pyridin-1-yl)-2-hydroxycyclohexyl)thiazole-2-carboxamide]

The remaining lines, values behind:

Row | Compound | IC50 (BCAT2 [1]) | BCAT2 Cell Inhibition (BCAT2 [2]) | IC50 (BCAT2 [2])
10 | CC(C)Oc1nc2cnc(-n3ccnn3)cc2n1[C@@H]1CCC[C@H](NC(=O)c2ncc(C(F)F)s2)C1 [Example 97, 5-(difluoromethyl)-N-((1S,3R)-3-(2-isopropoxy-6-(1H-1,2,3-triazol-1-yl)-1H-imidazo[4,5-c]pyridin-1-yl)cyclohexyl)thiazole-2-carboxamide] | > 1000 nM | E | 
11 | O=C(O)CCc1ccccc1-c1nc2cnc(-n3nccn3)cc2n1[C@@H]1CCC[C@H](NC(=O)c2ncc(C(F)F)s2)C1 [Example 100, 3-(2-(1-((1R,3S)-3-(5-(difluoromethyl)thiazole-2-carboxamido)cyclohexyl)-6-(2H-1,2,3-triazol-2-yl)-1H-imidazo[4,5-c]pyridin-2-yl)phenyl)propanoic acid] | 500 to 1000 nM | E | 
12 | CC(C)(Cc1nc2cnc(-n3nccn3)cc2n1[C@@H]1CCC[C@H](NC(=O)c2ccc(Cl)s2)C1)C(=O)O [Example 190, 3-(1-((1R,3S)-3-(5-chlorothiophene-2-carboxamido)cyclohexyl)-6-(2H-1,2,3-triazol-2-yl)-1H-imidazo[4,5-c]pyridin-2-yl)-2,2-dimethylpropanoic acid] | > 1000 nM | E | 
13 | CC(C)Cc1nc2cnc(N3CCC[C@H]3C(C)(C)O)cc2n1[C@@H]1CCC[C@H](NC(=O)c2ncc(Cl)s2)C1 [Example 193, 5-chloro-N-((1S,3R)-3-(6-((S)-2-(2-hydroxypropan-2-yl)pyrrolidin-1-yl)-2-isobutyl-1H-imidazo[4,5-c]pyridin-1-yl)cyclohexyl)thiazole-2-carboxamide] | > 1000 nM | E | 
14 | CC(C)Cc1nc2cnc(-c3ccccc3CO)cc2n1[C@@H]1CCC[C@H](NC(=O)c2ncc(Cl)s2)C1 [Example 205, 5-chloro-N-((1S,3R)-3-(6-(2-(hydroxymethyl)phenyl)-2-isobutyl-1H-imidazo[4,5-c]pyridin-1-yl)cyclohexyl)thiazole-2-carboxamide] | > 1000 nM | E | 
15 | CC(C)Cc1nc2cnc(-c3ccn(C)n3)cc2n1C1CC(O)CC(NC(=O)c2ncc(Cl)s2)C1 (stereo not drawn) [Example 210, 5-chloro-N-(3-hydroxy-5-(2-isobutyl-6-(1-methyl-1H-pyrazol-3-yl)-1H-imidazo[4,5-c]pyridin-1-yl)cyclohexyl)thiazole-2-carboxamide] | ≤ 100 nM |  | 500 to 1000 nM
16 | CC(C)Cc1nc2cnc(-c3cc(C(F)(F)F)n[nH]3)cc2n1[C@H]1CCC[C@@H](NC(=O)c2ncc(Cl)s2)[C@@H]1O [Example 217, 5-chloro-N-((1R,2S,3S)-2-hydroxy-3-(2-isobutyl-6-(3-(trifluoromethyl)-1H-pyrazol-5-yl)-1H-imidazo[4,5-c]pyridin-1-yl)cyclohexyl)thiazole-2-carboxamide] | > 1000 nM | E | 
17 | CC(C)Cc1nc2cnc(-n3cc(F)cn3)cc2n1[C@H]1CCC[C@@H](NC(=O)c2ncc(Cl)s2)[C@@H]1O [Example 231, 5-chloro-N-((1R,2S,3S)-3-(6-(4-fluoro-1H-pyrazol-1-yl)-2-isobutyl-1H-imidazo[4,5-c]pyridin-1-yl)-2-hydroxycyclohexyl)thiazole-2-carboxamide] | > 1000 nM | E | 
18 | Cc1coc(-c2cc3c(cn2)nc(-c2ccccc2F)n3[C@H]2CCC[C@@H](NC(=O)c3ncc(Cl)s3)[C@@H]2O)n1 [Example 237, 5-chloro-N-((1R,2S,3S)-3-(2-(2-fluorophenyl)-6-(4-methyloxazol-2-yl)-1H-imidazo[4,5-c]pyridin-1-yl)-2-hydroxycyclohexyl)thiazole-2-carboxamide] | 100 to 500 nM |  | 500 to 1000 nM
19 | O=C(N[C@@H]1CCC[C@H](n2c(-c3ccccc3F)nc3cnc(-c4ccn[nH]4)cc32)[C@H]1O)c1ncc(Cl)s1 [Example 239, 5-chloro-N-((1R,2S,3S)-3-(2-(2-fluorophenyl)-6-(1H-pyrazol-5-yl)-1H-imidazo[4,5-c]pyridin-1-yl)-2-hydroxycyclohexyl)thiazole-2-carboxamide] | 100 to 500 nM |  | 500 to 1000 nM
20 | O=C(N[C@@H]1CCC[C@H](n2c(-c3ccccc3F)nc3cnc(-c4ccccn4)cc32)[C@H]1O)c1ncc(Cl)s1 [Example 241, 5-chloro-N-((1R,2S,3S)-3-(2-(2-fluorophenyl)-6-(pyridin-2-yl)-1H-imidazo[4,5-c]pyridin-1-yl)-2-hydroxycyclohexyl)thiazole-2-carboxamide] | 100 to 500 nM |  | 100 to 500 nM
21 | Cc1cnn(-c2cc3c(cn2)nc(-c2ccccc2F)n3[C@H]2CCC[C@@H](NC(=O)c3ncc(Cl)s3)[C@@H]2O)n1 [Example 247, 5-chloro-N-((1R,2S,3S)-3-(2-(2-fluorophenyl)-6-(4-methyl-2H-1,2,3-triazol-2-yl)-1H-imidazo[4,5-c]pyridin-1-yl)-2-hydroxycyclohexyl)thiazole-2-carboxamide] | 500 to 1000 nM |  | 500 to 1000 nM
